Assay results published in EP0326331B1, “Substituted quinolines and cinnolines” (Dow AgroSciences LLC, priority 1988, dated 1989).
Read-outs that look alike come from different tables or passages of the source.

Tests used:
Format in all cases: in vivo
[1] = tested on: corn rootworm; assay: Mite/insect screen, CRW; conditions: percent mortality, read-out: CRW RESULTS %
Description: (§1) The compounds of Examples 1-295 were tested for miticidal and insecticidal activity in the following mite/insect screen.
(§2) Each test compound was formulated by dissolving the compound in acetone/alcohol (50:50) mixture containing 23 g of "TOXIMUL R" (sulfonate/nonionic emulsifier blend) and 13 g of "TOXIMUL S" (sulfonate/nonionic emulsifier blend) per liter. These mixtures were then diluted with water to give the indicated concentrations.
(§3) After standard exposure periods, percent mortality was evaluated. […]

[2] = tested on: Botrytis cinerea (gray mold); assay: Test 1 greenhouse foliar spray screen, gray mold on grape berries; conditions: for GRAY MOLD: disease control rating, spray on grape berries, 400 ppm (+++ at 100 ppm); for pest or weed control at 400 ppm: Botrytis cinerea, foliar, Test 1, spray on grape berries, disease control rating at 400 ppm / 100 ppm
[3] = tested on: Puccinia recondita tritici (leaf rust); assay: Test 1 greenhouse foliar spray screen, leaf rust on wheat; conditions: for LEAF RUST: disease control rating, foliar spray on wheat, 400 ppm (+++ at 100 ppm); for pest or weed control at 400 ppm: Puccinia recondita, foliar, Test 1, foliar spray on wheat, disease control rating at 400 ppm / 100 ppm
[4] = tested on: Pyricularia oryzae (rice blast); assay: whole plant or invertebrate; conditions: for RICE BLAST: disease control rating, foliar spray on rice, 400 ppm (+++ at 100 ppm); for pest or weed control at 400 ppm: Pyricularia oryzae, foliar, read-out: RICE BLAST, Test 1, foliar spray on rice, disease control rating at 400 ppm / 100 ppm
[5] = tested on: southern armyworm (Spodopetra eridania Cramer); assay: Mite/insect screen, SAW; conditions: Spodoptera eridania, percent mortality, read-out: SAW RESULTS %
Description: as §1, §2
(§4) Other plants in the same treatment pot were left uninfested. The leaves were then sprayed with 5 ml of test solution using a DeVilbiss atomizing sprayer at 10 psi. Both surfaces of the leaves were covered until runoff, and then allowed to dry for one hour. Two uninfested leaves were then excised and placed into a Petri dish containing southern armyworm (Spodopetra eridania Cramer).
as §3

[6] = tested on: Twospotted spider mites (Tetranychus urticae Koch); assay: Mite/insect screen, SM; conditions: Tetranychus urticae, percent mortality, read-out: SM RESULTS %
Description: as §1, §2, §4, §3

[7] = tested on: Pseudoperonospora cubensis (downy mildew); assay: Test 1 greenhouse foliar spray screen, downy mildew on squash; conditions: for DOWN MDEW: disease control rating, foliar spray on squash, 400 ppm (+++ at 100 ppm); for pest or weed control at 400 ppm: Pseudoperonospora cubensis, foliar, Test 1, foliar spray on squash, disease control rating at 400 ppm / 100 ppm, read-out: DOWN MDEW
[8] = tested on: melon aphids (Aphis gossypii Glover); assay: Mite/insect screen, MA; conditions: Aphis gossypii, percent mortality, read-out: MA RESULTS %
Description: as §1, §2, §4, §3

[9] = tested on: Erysiphe graminis tritici (powdery mildew); assay: Test 1 greenhouse foliar spray screen, powdery mildew on wheat; conditions: for POWD MDEW: disease control rating, foliar spray on wheat, 400 ppm (+++ at 100 ppm); for pest or weed control at 400 ppm: Blumeria graminis, foliar, Test 1, foliar spray on wheat, disease control rating at 400 ppm / 100 ppm, read-out: POWD MDEW
[10] = foliar, rate 200 ppm, foliar spray on squash
[11] = foliar, rate 400 ppm, foliar spray on squash

SMILES | mortality at 12 ppm ([1]; CRW RATE 12.00 PPM) [%] | mortality at 24 ppm ([1]; CRW RATE 24.00 PPM) [%] | GRAY MOLD [2] | LEAF RUST [3] | RICE BLAST [4] | mortality at 200 ppm ([5]; SAW, SM & MA RATE 200 PPM) [%] | mortality at 400 ppm ([5]; SAW, SM & MA RATE 400 PPM) [%] | mortality at 200 ppm ([6]; SAW, SM & MA RATE 200 PPM) [%] | DOWN MDEW [7] | mortality at 200 ppm ([8]; SAW, SM & MA RATE 200 PPM) [%] | POWD MDEW [9] | mortality at 24 ppm ([1]; CRW rate 24.00 ppm) [%] | pest or weed control at 400 ppm [2] [%] | pest or weed control at 400 ppm [3] [%] | pest or weed control at 400 ppm [4] [%] | mortality at 400 ppm [5, 11] [%] | mortality at 400 ppm [6, 11] [%] | pest or weed control at 400 ppm [7] [%] | mortality at 400 ppm [8, 11] [%] | pest or weed control at 400 ppm [9] [%] | other results
CC(=O)N(CCCCc1ccc(Cl)cc1)c1ccnc2c(F)cccc12 [Example 141, N-[4-(4-chlorophenyl)butyl]-N-(8-fluoro-4-quinolinyl)acetamide] | 0 | 0 | - (0-19% control at 400 ppm) | + (20-89% control at 400 ppm) | ++ (90-100% control at 400 ppm) | 0 | 0 | 0 | + (20-89% control at 400 ppm) | 0 | - (0-19% control at 400 ppm) |  |  |  |  |  |  |  |  |  | mortality at 400 ppm ([6]; SAW, SM & MA RATE 400 PPM): 0%; mortality at 400 ppm ([8]; SAW, SM & MA RATE 400 PPM): 0%
Clc1ccc2c(NCCc3cccc(Oc4ccccc4)c3)ccnc2c1 [Example 60, 7-chloro-N-[2-(3-phenoxyphenyl)ethyl]-4-quinolinamine] | 0 | 0 | - (0-19% control at 400 ppm) | ++ (90-100% control at 400 ppm) | +++ (90-100% control at 100 ppm) | 0 | 0 | 0 | +++ (90-100% control at 100 ppm) | 0 | ++ (90-100% control at 400 ppm) |  |  |  |  |  |  |  |  |  | mortality at 400 ppm ([6]; SAW, SM & MA RATE 400 PPM): 0%; mortality at 400 ppm ([8]; SAW, SM & MA RATE 400 PPM): 0%
COc1ccc(CCNc2ccnc3c(C)c(C)ccc23)cc1 [Example 133, N-[2-(4-methoxyphenyl)ethyl]-7,8-dimethyl-4-quinolinamine] | 0 | 0 | - (0-19% control at 400 ppm) | + (20-89% control at 400 ppm) | + (20-89% control at 400 ppm) | 0 | 0 | 0 | + (20-89% control at 400 ppm) | 0 | - (0-19% control at 400 ppm) |  |  |  |  |  |  |  |  |  | mortality at 400 ppm ([6]; SAW, SM & MA RATE 400 PPM): 0%; mortality at 400 ppm ([8]; SAW, SM & MA RATE 400 PPM): 0%
Fc1ccc(CCOc2ccnc3cc(Cl)ccc23)c(F)c1 [Example 276, 7-chloro-4-[2-(2,4-difluorophenyl)ethoxy]quinoline] |  |  |  |  |  |  |  |  |  |  |  | 0 | 0 to 19 | 20 to 89 | 0 to 19 | 0 | 60 | 0 to 19 | 80 | 90 to 100 | mortality at 12 ppm ([1]; CRW rate 12.00 ppm): 0%; mortality at 200 ppm [5, 10]: 0%; mortality at 200 ppm [6, 10]: 0%; mortality at 200 ppm [8, 10]: 0%
Clc1ccc(CCNc2ccc3nccc(NCCc4ccc(Cl)cc4)c3c2)cc1 [Example 185, N,N'-bis[2-(4-chlorophenyl)ethyl]-4,6-quinolinediamine] |  |  | - (0-19% control at 400 ppm) | + (20-89% control at 400 ppm) | + (20-89% control at 400 ppm) |  |  |  | + (20-89% control at 400 ppm) |  | - (0-19% control at 400 ppm) | 0 |  |  |  | 0 | 0 |  | 0 |  | mortality at 12 ppm ([1]; CRW rate 12.00 ppm): 0%; mortality at 200 ppm [5, 10]: 0%; mortality at 200 ppm [6, 10]: 0%; mortality at 200 ppm [8, 10]: 0%
CCOc1ccc(CCOc2ccnc3cc(Cl)cc(Cl)c23)cc1 [Example 277, 5,7-dichloro-4-[2-(4-ethoxyphenyl)ethoxy]quinoline] |  |  |  |  |  |  |  |  |  |  |  | 0 | 0 to 19 | 0 to 19 | 0 to 19 | 0 | 0 | 0 to 19 | 0 | 90 to 100 | 
Clc1cccc2c(NCCCCc3ccccc3)ccnc12 [Example 281, 8-chloro-N-(4-phenylbutyl)-4-quinolinamine] |  |  |  |  |  |  |  |  |  |  |  | 0 | 0 to 19 | 20 to 89 | 90 to 100 | 0 | 0 | 90 to 100 | 0 | 20 to 89 | mortality at 12 ppm ([1]; CRW rate 12.00 ppm): 0%; mortality at 200 ppm [5, 10]: 0%; mortality at 200 ppm [6, 10]: 0%; mortality at 200 ppm [8, 10]: 0%
Clc1ccc(CCNc2ccnc3c(Cl)cccc23)cc1 [Example 85, 8-chloro-N-[2-(4-chlorophenyl)ethyl]-4-quinolinamine] | 0 | 0 | - (0-19% control at 400 ppm) | + (20-89% control at 400 ppm) | - (0-19% control at 400 ppm) | 0 | 0 | 0 | - (0-19% control at 400 ppm) | 0 | - (0-19% control at 400 ppm) |  |  |  |  |  |  |  |  |  | mortality at 400 ppm ([6]; SAW, SM & MA RATE 400 PPM): 0%; mortality at 400 ppm ([8]; SAW, SM & MA RATE 400 PPM): 0%
Fc1cccc2c(OCCCCOc3ccccc3)ccnc12 [Example 272, 8-fluoro-4-(4-phenoxybutoxy)quinoline] |  |  |  |  |  |  |  |  |  |  |  | 0 | 0 to 19 | 0 to 19 | 20 to 89 | 0 | 20 | 20 to 89 | 0 | 0 to 19 | mortality at 12 ppm ([1]; CRW rate 12.00 ppm): 0%; mortality at 200 ppm [5, 10]: 0%; mortality at 200 ppm [6, 10]: 0%; mortality at 200 ppm [8, 10]: 0%
Fc1cccc2c(NCCc3ccc(Cl)cc3)cc(NCCc3ccc(Cl)cc3)nc12 [Example 188, N,N'-bis[2-(4-chlorophenyl)ethyl]-8-fluoro-2,4-quinolinediamine] |  |  |  |  |  |  |  |  |  |  |  | 0 | 0 to 19 | 20 to 89 | 90 to 100 | 0 | 0 | 90 to 100 | 0 | 0 to 19 | 
CCc1cccc2c(NCCc3ccccc3)ccnc12 [Example 29, 8-ethyl-N-(2-phenylethyl)-4-quinolinamine] | 0 |  | - (0-19% control at 400 ppm) | + (20-89% control at 400 ppm) | + (20-89% control at 400 ppm) | 0 |  | 0 | - (0-19% control at 400 ppm) | 0 | - (0-19% control at 400 ppm) |  |  |  |  |  |  |  |  |  | 
Clc1ccccc1CCOc1ccnc2c(Cl)cccc12 [Example 216, 8-chloro-4-[2-(2-chlorophenyl)ethoxy]quinoline] |  |  |  |  |  |  |  |  |  |  |  | 100 | 0 to 19 | 90 to 100 | 90 to 100 | 0 | 0 | 90 to 100 | 0 | 90 to 100 | 
Fc1ccc(CCOc2ccnc3c(Cl)cccc23)cc1 [Example 240, 8-chloro-4-[2-(4-fluorophenyl)ethoxy]quinoline] |  |  |  |  |  |  |  |  |  |  |  | 0 | 0 to 19 | 90 to 100 | 20 to 89 | 0 | 0 | 0 to 19 | 0 | 0 to 19 | 
